The results in this text go back to article PMC10349806 (Nature Communications, 2023).

“And” between values parts separate entries of the source, which are not always exact repeats. Equal values may be shown once.

This experiment deals with T1, PfCRT variant E207L (Plasmodium falciparum, UniProt Q9N623, A220S/E207L/I356T/K76T/M74I/N326S/N75E/Q271E/R371I).
T1 construct: expressed in transfected cells; host or cells: Xenopus laevis oocytes injected with in vitro transcribed RNA (pSP64T)
T1 sequence (Q9N623 1-424 M74I/N75E/K76T/E207L/A220S/Q271E/N326S/I356T/R371I): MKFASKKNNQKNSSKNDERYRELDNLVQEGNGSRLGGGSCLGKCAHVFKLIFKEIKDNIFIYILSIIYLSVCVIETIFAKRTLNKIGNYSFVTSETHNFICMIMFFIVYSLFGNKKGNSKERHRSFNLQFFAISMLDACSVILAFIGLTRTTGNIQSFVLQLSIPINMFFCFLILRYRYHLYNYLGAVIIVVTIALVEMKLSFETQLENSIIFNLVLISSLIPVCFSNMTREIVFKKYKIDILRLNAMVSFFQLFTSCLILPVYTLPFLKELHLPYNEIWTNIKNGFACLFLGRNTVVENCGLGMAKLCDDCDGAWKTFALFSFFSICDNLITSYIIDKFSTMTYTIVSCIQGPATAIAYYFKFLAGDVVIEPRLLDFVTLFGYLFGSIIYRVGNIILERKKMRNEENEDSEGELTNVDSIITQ
The experiment is described as follows: CQ uptake assay, oocytes expressing E207L. The class given is cell-based. On the procedure: Site-directed mutagenesis of PfCRT^Dd2 was performed as described using the megaprimer method with overlap extension[21],[54]. The primer pairs used are listed in Supplementary Table 6. Please note that a codon-optimized and oocyte-adapted version of PfCRT^Dd2 was used[22] (Supplementary Fig. 16). The resulting DNA fragment was cloned into the SP64T expression vector and verified by sequencing.
Oocytes were obtained as described previously. Briefly, adult (>2 years old) female X. laevis frogs (NASCO) were anesthetized in a cooled solution of ethyl 3-amino benzoate methanesulfonate (0.1%, w/v), followed by a surgical removal of parts of the ovary. The ovary lobes were carefully dissected and small pieces of oocytes were incubated in Ca^2+-free ND96 buffer (96 mM NaCl, 2 mM KCl, 1 mM MgCl2 buffered with 5 mM HEPES/NaOH, pH 7.5) supplemented with collagenase D (0.1%, w/v; Roche), BSA (0.5%, w/v), and 9 mm Na2HPO4 at 18 °C for 14-16 h while gentle shaking. After incubation, the oocytes were carefully washed several times with ND96 buffer (96 mM NaCl, 2 mM KCl, 1.8 mM CaCl2, 1 mM MgCl2 buffered with 5 mM HEPES/NaOH, pH 7.5) supplemented with 100 mg l^−1 gentamycin). Defolliculated and healthy-looking stage V-VI oocytes were manually selected for RNA microinjection. The RNA was generated as following: The codon-optimized sequences of PfCRT variants were cloned into the pSP64T expression vector. After vector linearization using the restriction endonucleases BamHI or SalI (New England Biolabs), transcription was performed using the in vitro SP6 mMessage mMachine Kit (Ambion)[34]. The obtained RNA was kept at −80 °C and diluted with nuclease-free water to a concentration of 0.6 μg μl^−1. Precision-bore glass capillary tubes (3.5-inch glass capillaries; Drummond Scientific Co.) were pulled on a vertical puller (P-87 Flaming/Brown micropipette puller, Sutter Instrument Co.), graduated, and placed on a microinjector (Nanoject II Auto-Nanoliter Injector, Drummond Scientific Co.). 50 nl of nuclease-free water alone (control oocytes) or 50 nl of 0.6 μg μl^−1 RNA were injected under stereomicroscopic control. Injected oocytes were incubated for 46–72 h at 18 °C with twice-daily buffer changes before usage in experiments.
Drug uptake assays were performed as described previously[21],[22],[24],[34]. […] The direction of radio-labeled drug transport is here from the mostly acidic extracellular solution (pH 4.5 or 6.0, as indicated) into the oocyte cytosol (pH ∼ 7.2), which corresponds to the efflux of drug from the acidic digestive vacuole (pH 5.2) into the parasite cytoplasm (pH 7.2). The topology of PfCRT in the oolemma is such that both the N- and C-terminus face the extracellular milieu[3],[22]. In the parasite, the N- and C-terminus face the lumen of the digestive vacuole. […] For determination of the amount of drug uptake for each oocyte, the reaction medium was removed and the oocytes were washed three times with 2 ml of ice-cold ND96 buffer. Each oocyte was individually transferred to a scintillation vial containing 5% sodium dodecyl sulfate (200 μl) for lysis. […] Oocytes that were injected with water instead of RNA were analyzed in parallel, representing the uptake of a drug by diffusion and/or endogenous permeation pathways. The resulting value represents the “background“ level of drug accumulation in oocytes (in-depth discussion in[22]). The specific PfCRT-mediated uptake was determined by subtracting the corresponding background value measured in water-injected oocytes from that of PfCRT-expressing oocytes. In all cases, at least three separate experiments were performed on oocytes from different frogs (biological replicate), and for each condition in an experiment, measurements were made from 10 oocytes per treatment. For pH 5.5, 6.0, and 6.5, ND96 was buffered with 5 mM MES/Tris base.

Where [1] appears, read: E207L, 50 µM CQ, 1 h, mean ± SEM.

For `CCN(CC)CCCC(C)Nc1ccnc2cc(Cl)ccc12` (stereo not drawn) [CQ, chloroquine], under setting [1], the “Activity at pH 4.5” value stood at 2.10 ± 0.17 pmol h-1 oocyte-1 and the “Activity at pH 6.0” value was 2.25 ± 0.22 pmol h-1 oocyte-1. The R-value (E207L, CQ transport at pH 4.5 / pH 6.0) came out at 0.95 ± 0.04. Besides, the “E207L transport activity pH 4.5” value (pH 4.5, individual replicates, Fig 6b) was 2.14 pmol oocyte-1 h-1 and 2.36 pmol oocyte-1 h-1 and 2.37 pmol oocyte-1 h-1 and 1.53 pmol oocyte-1 h-1. Also, the “E207L transport activity pH 6.0” value (pH 6.0, individual replicates, Fig 6b) is 2.70 pmol oocyte-1 h-1 and 2.35 pmol oocyte-1 h-1 and 1.52 pmol oocyte-1 h-1. In addition, the “E207L R-value” (ratio of activity pH 4.5 / pH 6.0) was 0.79 and 1.00 and 0.98 and 1.01.
